In patent publication US7601357B2 (priority 2005, dated 2009):
“And” between values parts separate entries of the source, which are not always exact repeats. Equal entries are not always repeated. Where two headings read alike, the source gives them in different places.

T1: LIPY (Mycobacterium tuberculosis, UniProt I6Y2J4)
T1 construct: The 24 open-reading frames (ORFs) were amplified from the genomic DNA of M. tuberculosis H37Rv; 6xHis (pET200 D-TOPO N-terminal fusion) (N); made in house; host or cells: E. coli BL21 Star (DE3)
T1 sequence (I6Y2J4 1-437): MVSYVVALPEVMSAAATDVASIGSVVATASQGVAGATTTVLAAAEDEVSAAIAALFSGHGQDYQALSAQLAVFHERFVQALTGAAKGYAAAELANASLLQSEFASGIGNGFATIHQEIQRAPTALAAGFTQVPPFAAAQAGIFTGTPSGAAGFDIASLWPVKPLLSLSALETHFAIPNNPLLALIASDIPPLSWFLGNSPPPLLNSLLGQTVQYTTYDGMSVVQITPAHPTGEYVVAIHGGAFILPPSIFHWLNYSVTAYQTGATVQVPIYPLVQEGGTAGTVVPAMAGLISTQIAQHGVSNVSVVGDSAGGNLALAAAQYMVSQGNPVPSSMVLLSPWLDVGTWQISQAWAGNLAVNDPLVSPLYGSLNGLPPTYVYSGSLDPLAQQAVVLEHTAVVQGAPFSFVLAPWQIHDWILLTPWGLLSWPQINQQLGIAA


Experiments:
[1] = target: T1, LIPY; type: biochemical
[2] = type: biochemical, M. tuberculosis; details: pH 8

Row | Molecule | Effect of salt on LIPY activity (in words) [1] | LIPY activity (triolein hydrolase) Mean ± SD [1] | further results
1 | CC(=O)[O-].[K+] [CH3COO.K, potassium acetate] | enhanced the activity | 692.6 ± 57.0 nmol/mg/min and 749.0 ± 73.3 nmol/mg/min | –
2 | CC(=O)[O-].[Na+] [CH3COO.Na, sodium acetate] | enhanced the activity | 681.7 ± 80.3 nmol/mg/min and 729.3 ± 96.5 nmol/mg/min | –
3 | [Ca+2].[Cl-].[Cl-] [CaCl2] | inhibited | – | –
4 | [Cl-].[Cl-].[Co+2] [CoCl2] | inhibited the activity | – | –
5 | CCOP(=O)(OCC)Oc1ccc([N+](=O)[O-])cc1 [E-600, diethyl-p-nitrophenyl phosphate, reference compound] | – | – | Inhibition of LIPY activity ([1]; 0.5 µM): 99.5%
6 | [Cl-].[K+] [KCl] | enhanced the activity | 675.2 ± 103.5 nmol/mg/min and 686.8 ± 68.8 nmol/mg/min | –
7 | [Cl-].[Cl-].[Mg+2] [MgCl2] | inhibited the activity | 306.3 ± 111.1 nmol/mg/min and 219.9 ± 34.3 nmol/mg/min | –
8 | [Cl][Mn][Cl] [MnCl2] | inhibited the activity | – | –
9 | [Cl-].[Na+] [NaCl] | enhanced the activity | 681.3 ± 87.2 nmol/mg/min | –
10 | CCCCCCCCCCCCOS(=O)(=O)[O-].[Na+] [SDS, sodium dodecyl sulfate, reference compound] | – | – | Effect of detergent on LIPY lipase activity ([1]; concentrations above 2 mM): severely inhibited; Effect of detergent on LIPY lipase activity ([1]; concentrations up to 2 mM): stimulated slightly
11 | CCCCCCCCCCCC(=O)OCCOCCOCCOCCOCCOCCOCCOCCOCCOCCOCCOCCOCCOCCOCCOCCOCCOCCOCCOCCOCC(OCCOCCOCCOCCOCCOCCOCCOCCOCCOCCOCCOCCOCCOCCOCCOCCOCCOCCOCCOCCO)C1OCC(OCCOCCOCCOCCOCCOCCOCCOCCOCCOCCOCCOCCOCCOCCOCCOCCOCCOCCOCCOCCO)C1OCCOCCOCCOCCOCCOCCOCCOCCOCCOCCOCCOCCOCCOCCOCCOCCOCCOCCOCCOCCO (stereo not drawn) [Tween-20, polyethylene glycol sorbitan monolaurate, reference compound] | – | – | Effect of detergent on LIPY lipase activity ([1]; all concentrations from 0.1-2.0%): inhibited
12 | [Cl-].[Cl-].[Zn+2] [ZnCl2] | inhibited the activity | – | –
13 | polyethylene glycol tert-octylphenyl ether [Triton X-100, reference compound] | – | – | Effect of detergent on LIPY lipase activity ([1]; 0.1%): stimulated the activity; Effect of detergent on LIPY lipase activity ([1]; concentrations higher than 0.1%): inhibitory
14 | LIPL: M. tuberculosis putative lipase/esterase gene product expressed in E. coli (protein, UniProt P71778 1-429, looked up) Esterase/beta-lactamase LipL: MMVDTGVDHRAVSSHDGPDAGRRVFGAADPRFACVVRAFASMFPGRRFGGGALAVYLDGQPVVDVWKGWADRAGWVPWSADSAPMVFSATKGMTATVIHRLADRGLIDYEAPVAEYWPAFGANGKATLTVRDVMRHQAGLSGLRGATQQDLLDHVVMEERLAAAVPGRLLGKSAYHALTFGWLMSGLARAVTGKDMRLLFREELAEPLDTDGLHLGRPPADAPTRVAEIIMPQDIAANAVLTCAMRRLAHRFSGGFRSMYFPGAIAAVQGEAPLLDAEIPAANGVATARALARMYGAIANGGEIDGIRFLSRELVTGLTRNRRQVLPDRNLLVPLNFHLGYHGMPIGNVMPGFGHVGLGGSIGWTDPETGVAFALVHNRLLSPLVMTDHAGFVGIYHLIRQAAAQARKRGYQPVTPFGAPYSEPGAAAG | – | – | TG hydrolase activity [2]: 3.4 nmol/mg/min
